From patent US6982348B2, “Aminoethanol derivatives” (Takeda Pharmaceutical Company Limited, priority 2001, dated 2006)

Row | melting point [°C] | SMILES
1 | 191 to 192 | O=C(N[C@H](Cc1ccc(C(F)(F)F)cc1)[C@@H](O)c1ccc(F)cc1)c1cccc2cccc(Br)c12 (racemic) [Example 87, 8-bromo-N-((1RS,2SR)-2-(4-fluorophenyl)-2-hydroxy-1-((4-(trifluoromethyl)phenyl)methyl)ethyl)-1-naphthalenecarboxamide]
2 | 129 to 131 | Cn1cc(C(=O)N[C@H](Cc2ccc(C(F)(F)F)cc2)[C@@H](O)c2ccc(F)cc2)c2ccccc21 (racemic) [Example 98, N-[(1RS,2SR)-2-(4-fluorophenyl)-2-hydroxy-1-[4-(trifluoromethyl)benzyl]ethyl]-1-methyl-1H-indole-3-carboxamide]
3 | 227 to 228 | COc1ccc(C(=O)N[C@H](Cc2ccc(C(F)(F)F)cc2)[C@@H](O)c2ccc(F)cc2)c2ccccc12 (racemic) [Example 101, N-[(1RS,2SR)-2-(4-fluorophenyl)-2-hydroxy-1-[4-(trifluoromethyl)benzyl]ethyl]-4-methoxynaphthalene-1-carboxamide]
4 | 231 to 232 | O=C(N[C@H](Cc1ccc(C(F)(F)F)cc1)[C@@H](O)c1ccc(F)cc1)c1cc([N+](=O)[O-])cc2ccccc12 (racemic) [Example 102, N-[(1RS,2SR)-2-(4-fluorophenyl)-2-hydroxy-1-[4-(trifluoromethyl)benzyl]ethyl]-3-nitronaphthalene-1-carboxamide]
5 | 255 to 256 | NC(=O)c1ccc(C(=O)N[C@H](Cc2ccc(C(F)(F)F)cc2)[C@@H](O)c2ccc(F)cc2)c2ccccc12 (racemic) [Example 104, N1-[(1RS,2SR)-2-(4-fluorophenyl)-2-hydroxy-1-[4-(trifluoromethyl)benzyl]ethyl]naphthalene-1,4-dicarboxamide]
6 | 202 to 203 | O=C(N[C@H](Cc1ccc(C(F)(F)F)cc1)[C@@H](O)c1ccc(F)cc1)c1ccc(CO)c2ccccc12 (racemic) [Example 105, N-((1RS,2SR)-2-(4-fluorophenyl)-2-hydroxy-1-((4-(trifluoromethyl)phenyl)methyl)ethyl)-4-(hydroxymethyl)-1-naphthalenecarboxamide]
7 | 144 to 145 | O=C(N[C@H](Cc1ccc(C(F)(F)F)cc1)[C@@H](O)c1ccc(F)cc1)c1cccc(Oc2ccccc2)c1 (racemic) [Example 107, N-((1RS,2SR)-2-(4-fluorophenyl)-2-hydroxy-1-((4-(trifluoromethyl)phenyl)methyl)ethyl)-3-phenoxybenzamide]
8 | 201 to 202 | O=C(N[C@H](Cc1ccc(C(F)(F)F)cc1)[C@@H](O)c1ccc(F)cc1)C(c1ccccc1)C1CCCC1 (mixture of isomers) [Example 110, 2-cyclopentyl-N-[(1RS,2SR)-2-(4-fluorophenyl)-2-hydroxy-1-[4-(trifluoromethyl)benzyl]ethyl]-2-phenylacetamide]
9 | 216 to 217 | O=C(N[C@H](Cc1ccc(C(F)(F)F)cc1)[C@@H](O)c1ccc(F)cc1)c1cc([N+](=O)[O-])cc2c1CCCC2 (racemic) [Example 111, N-[(1RS,2SR)-2-(4-fluorophenyl)-2-hydroxy-1-[4-(trifluoromethyl)benzyl]ethyl]-3-nitro-5,6,7,8-tetrahydronaphthalene-1-carboxamide]
10 | 155 to 156 | O=C(N[C@H](Cc1ccc(C(F)(F)F)cc1)[C@@H](O)c1ccc(F)cc1)c1cccc2c1OCCCO2 (racemic) [Example 113, N-[(1RS,2SR)-2-(4-fluorophenyl)-2-hydroxy-1-[4-(trifluoromethyl)benzyl]ethyl]-3,4-dihydro-2H-1,5-benzodioxepine-6-carboxamide]
11 | 151 to 152 | O=C(N[C@H](Cc1ccc(C(F)(F)F)cc1)[C@@H](O)c1ccc(F)cc1)OCc1ccccc1 (racemic) [Example 114, benzyl N-[(1RS,2SR)-2-(4-fluorophenyl)-2-hydroxy-1-[4-(trifluoromethyl)benzyl]ethyl]carbamate]
12 | 222 to 223 | O=C(Nc1cccc2ccccc12)N[C@H](Cc1ccc(C(F)(F)F)cc1)[C@@H](O)c1ccc(F)cc1 (racemic) [Example 118, N-((1RS,2SR)-2-(4-fluorophenyl)-2-hydroxy-1-((4-(trifluoromethyl)phenyl)methyl)ethyl)-N′-(1-naphthalenyl)urea]

Second part, the compound before the results:

Row | SMILES | melting point [°C]
13 | O=C(N[C@H](Cc1ccc(C(F)(F)F)cc1)[C@@H](O)c1ccc(F)cc1)c1ccc(C(=O)c2ccc(F)cc2)cc1 (racemic) [Example 88, 4-(4-fluorobenzoyl)-N-[(1RS,2SR)-2-(4-fluorophenyl)-2-hydroxy-1-[4-(trifluoromethyl)benzyl]ethyl]benzenecarboxamide] | 156 to 157
14 | O=C(N[C@H](Cc1ccc(C(F)(F)F)cc1)[C@@H](O)c1ccc(F)cc1)c1ccc(/C=C\c2ccc(Cl)cc2)cc1 (racemic) [Example 89, 4-[(Z)-2-(4-chlorophenyl)ethenyl]-N-[(1RS,2SR)-2-(4-fluorophenyl)-2-hydroxy-1-[4-(trifluoromethyl)benzyl]ethyl]benzenecarboxamide] | 193 to 194
15 | O=C(N[C@H](Cc1ccc(C(F)(F)F)cc1)[C@@H](O)c1ccc(F)cc1)c1ccc(Oc2ccc(Cl)cc2)cc1 (racemic) [Example 90, 4-(4-chlorophenoxy)-N-[(1RS,2SR)-2-(4-fluorophenyl)-2-hydroxy-1-[4-(trifluoromethyl)benzyl]ethyl]benzenecarboxamide] | 188 to 189
16 | COCc1oc(-c2ccccc2)c(C(=O)N[C@H](Cc2ccc(C(F)(F)F)cc2)[C@@H](O)c2ccc(F)cc2)c1-c1ccc(F)cc1 (racemic) [Example 91, 4-(4-fluorophenyl)-N-[(1RS,2SR)-2-(4-fluorophenyl)-2-hydroxy-1-[4-(trifluoromethyl)benzyl]ethyl]-5-[(methoxy)methyl]-2-phenylfuran-3-carboxamide] | 204 to 206
17 | O=C(N[C@H](Cc1ccc(C(F)(F)F)cc1)[C@@H](O)c1ccc(F)cc1)c1ccc(CCc2ccc(Cl)cc2)cc1 (racemic) [Example 92, 4-[2-(4-chlorophenyl)ethyl]-N-[(1RS,2SR)-2-(4-fluorophenyl)-2-hydroxy-1-[4-(trifluoromethyl)benzyl]ethyl]benzenecarboxamide] | 211 to 212
18 | O=C(N[C@H](Cc1ccc(C(F)(F)F)cc1)[C@@H](O)c1ccc(F)cc1)c1ccc([C@@H]2O[C@@H]2c2ccc(Cl)cc2)cc1 (racemic) [Example 93, 4-[cis-3-(4-chlorophenyl)oxiran-2-yl]-N-[(1RS,2SR)-2-(4-fluorophenyl)-2-hydroxy-1-[4-(trifluoromethyl)benzyl]ethyl]benzenecarboxamide] | 162 to 166
19 | O=C(N[C@H](Cc1ccc(C(F)(F)F)cc1)[C@@H](O)c1ccc(F)cc1)c1ccc(/C=C\c2ccccc2Cl)cc1 (racemic) [Example 96, 4-[(Z)-2-(2-chlorophenyl)ethenyl]-N-[(1RS,2SR)-2-(4-fluorophenyl)-2-hydroxy-1-[4-(trifluoromethyl)benzyl]ethyl]benzenecarboxamide] | 153 to 154
20 | O=C(N[C@H](Cc1ccc(C(F)(F)F)cc1)[C@@H](O)c1ccc(F)cc1)c1c(CSc2ccccc2)ccc2ccccc12 (racemic) [Example 97, N-[(1RS,2SR)-2-(4-fluorophenyl)-2-hydroxy-1-[4-(trifluoromethyl)benzyl]ethyl]-2-[(phenylthio)methyl]naphthalene-1-carboxamide] | 102 to 104
21 | O=C(CCCCc1ccccc1)N[C@H](Cc1ccc(C(F)(F)F)cc1)[C@@H](O)c1ccc(F)cc1 (racemic) [Example 99, N-((1RS,2SR)-2-(4-fluorophenyl)-2-hydroxy-1-((4-(trifluoromethyl)phenyl)methyl)ethyl)-5-phenylpentanamide] | 152 to 153
22 | O=C(CC(F)(F)F)N[C@H](Cc1ccc(C(F)(F)F)cc1)[C@@H](O)c1ccc(F)cc1 (racemic) [Example 109, N-[(1RS,2SR)-2-(4-fluorophenyl)-2-hydroxy-1-[4-(trifluoromethyl)benzyl]ethyl]-3,3,3-trifluoropropionamide] | 179 to 180
23 | CC(C)(C)C(Cc1ccccc1)C(=O)N[C@H](Cc1ccc(C(F)(F)F)cc1)[C@@H](O)c1ccc(F)cc1 (mixture of isomers) [Example 112, 2-benzyl-N-[(1RS,2SR)-2-(4-fluorophenyl)-2-hydroxy-1-[4-(trifluoromethyl)benzyl]ethyl]-3,3-dimethylbutyramide] | 175 to 176
24 | CCOC(=O)N[C@H](Cc1ccc(C(F)(F)F)cc1)[C@@H](O)c1ccc(F)cc1 (racemic) [Example 115, ethyl N-[(1RS,2SR)-2-(4-fluorophenyl)-2-hydroxy-1-[4-(trifluoromethyl)benzyl]ethyl]carbamate] | 143 to 144
25 | CC(C)(C)COC(=O)N[C@H](Cc1ccc(C(F)(F)F)cc1)[C@@H](O)c1ccc(F)cc1 (racemic) [Example 116, neopentyl N-[(1RS,2SR)-2-(4-fluorophenyl)-2-hydroxy-1-[4-(trifluoromethyl)benzyl]ethyl]carbamate] | 112 to 113
26 | O=S(=O)(N[C@H](Cc1ccc(C(F)(F)F)cc1)[C@@H](O)c1ccc(F)cc1)c1cccc2ccccc12 (racemic) [Example 117, N-((1RS,2SR)-2-(4-fluorophenyl)-2-hydroxy-1-((4-(trifluoromethyl)phenyl)methyl)ethyl)-1-naphthalenesulfonamide] | 176 to 177
27 | O=C(Nc1ccc(C(F)(F)F)cc1)N[C@H](Cc1ccc(C(F)(F)F)cc1)[C@@H](O)c1ccc(F)cc1 (racemic) [Example 119, N-((1RS,2SR)-2-(4-fluorophenyl)-2-hydroxy-1-((4-(trifluoromethyl)phenyl)methyl)ethyl)-N′-(4-(trifluoromethyl)phenyl)urea] | 160 to 161
28 | CN(C(=O)c1cccc2ccccc12)[C@H](Cc1ccc(C(F)(F)F)cc1)[C@@H](O)c1ccc(F)cc1 (racemic) [Example 121, N-((1RS,2SR)-2-(4-fluorophenyl)-2-hydroxy-1-((4-(trifluoromethyl)phenyl)methyl)ethyl)-N-methyl-1-naphthalenecarboxamide] | 196 to 197
